Source: publication PMC12113707, “Microwave Assisted Synthesis of Antioxidant Dihydro-Pyrazole Hybrids as Possible Lipoxygenase Inhibitors” (Molecules, 2025)

How the values were obtained:
[1] = Experimental lipophilicity RM by reverse phase thin layer chromatography (RP-TLC); type: physicochemical; conditions: methanol-water mobile phase
Method: Lipophilicity is a main physicochemical parameter for bioactive molecules, linking solubility, ligand-target binding interactions, membrane permeability absorption, distribution, bioavailability, metabolism, elimination and toxicological effects (ADMET), playing an important role in biological activity. The experimental values of lipophilicity RM were determined by reverse phase thin layer chromatography. For the experimental determination of lipophilicity the hydrophilic-lipid phase system is a mixture of methanol- water (90/10%). The theoretical lipophilicity values are determined by the Bioloom program (http://biobyte.com/bb/prod/bioloom.html, accessed on 8 April 2024) (Table 1). According to the calculated clog P values, the most lipophilic compounds are 3c, 3d and 3f while the less lipophilic ones are compounds 5a and 5b.
Melting points were determined on a MEL-Temp II (Lab. Devices, Holliston, MA, USA). In vitro tests were carried out using a UV-Vis spectra and recorded on a Perkin-Elmer 554 double-beam spectrophotometer (Perkin-Elmer Corporation Ltd., Lane Beaconsfield, Bucks, UK). Infrared spectra (KBr pellets) were recorded with Perkin-Elmer 597 spectrophotometer (Perkin-Elmer Corporation Ltd., Lane Beaconsfield, Bucks, UK). The ^1H […] Magnetic Resonance (^1H-NMR) spectra were acquired on an Agilent 500/54 (DD2) at 500 MHz in CDCl3 using tetramethylsilane as an internal standard. Agilent 500/54 (DD2) ^13C NMR spectra were acquired at 125 MHz in CDCl3 solutions with tetramethylsilane serving as an internal reference. Coupling constants J are expressed in Hz, and chemical shifts are reported in ppm. Thermo Fisher Scientific Inc., Waltham, MA, USA, used MeOH as the solvent to calculate mass spectra using an LC-PDA-MS Thermo Finnigan system (LC Pump Plus, Autosampler, Surveyor PDA Plus Detector) interfaced with an ESI MSQ Plus (Thermo Finnigan). Thin-layer chromatography using 5554 F254 Silica gel/TLC cards (Merck and Fluka Chemie GmbH Buchs, Steinheim, Switzerland) was used to monitor the reaction progress. Silica gel 60 F254 plates with a diameter of 2 mm were utilized for preparative thin layer chromatography (prep TLC) by Merck KgaA (ICH078057). Merck (20 × 20 cm) plates were used for the experimental assessment of the lipophilicity using reverse phase thin-layer chromatography (RP-TLC) TLC-Silica gel 60 F254 DC Kieselgel.
In this experiment, TLC silica gel 60 F254 1.05715.0001 commercial glass plates from Merck were used. The plates were first immersed in a 5% v/v solution of liquid paraffin in petroleum ether and left for 90 s to become completely impregnated with the stable lipophilic phase. They were then activated by standing for 30 min in an oven at 40 °C and kept there until the time of use. A 70% v/v MeOH/H2O mixture was used as the mobile phase. The mobile phase was saturated with a few drops of liquid paraffin before being used. The spots of the compounds were placed on the plate at a distance of 2 cm from the edges of the plate and also from each other. The development of the spots on the plates was carried out in closed chromatography chambers where the atmosphere is saturated with the mobile phase at room temperature. At the end of development, the solvent-formed front was marked and the plates are dried at 80 °C for about 20–30 min. The appearance of the spots was made under an ultraviolet light lamp. The Rf values were the average of 5–6 measurements for each compound and assuming that the compounds will have been rotated to different positions on the plates. The RM values were calculated from the corresponding Rf values according to the equation [67].RM = log [(1/Rf) − 1](1)

[2] = Interaction with the stable free radical DPPH (reducing activity); conditions: 517 nm
Method: In general, the compounds present moderate to good antioxidant activity. It seems that the dibenzylacetones present satisfactory antioxidant activity compared to the hybrids at 60 min (1b, 1d and 1f).
The tested compounds (0.1 mM final concentration) dissolved in DMSO were incubated with a solution of DPPH in absolute ethanol in absence of light. The absorbance at 20 and 60 min at 517 nm was recorded at room temperature. NDGA was used as the reference compound.

[3] = Inhibition of AAPH-induced linoleic acid peroxidation; conditions: 37 °C, 234 nm
Method: The ability of the compounds to inhibit AAPH-induced peroxidation of linoleic acid is another assay to investigate the antioxidant properties of the compounds. Azo compounds such as 2,2′-azobis dihydrochloride (2-amidinopropane) (AAPH) are capable of generating free radicals through spontaneous decomposition at 37 °C. The R- radicals react immediately with air-oxygen to produce peroxy radicals. AAPH was therefore used as the radical initiator and sodium linoleate as substrate subjected to peroxidation. Measurements were carried out at 234 nm using a UV/V is spectrophotometer. Dichalcone 1i substituted with two phenyl groups presents the lowest lipophilicity. […] Therefore, hydrophilic substituents offer an increase in activity.
The interaction of free radicals with cell membrane lipids induces free radical chain reactions, a process called lipid peroxidation. 930 μL of a phosphate buffer solution (0.05 M, pH = 7.4), 10 μL of the sodium linolate solution (16 mM in a buffer solution of Tris-HCl pH = 9) and 10 μL of the tested compounds (stock solutions 100 μΜ) were mixed and the oxidative procedure started after the addition of 50 μL AAPH at 37 °C under air conditions. The conjugated diene’s absorbance was measured at 234 nm at a thermostable spectrophotometer (37 °C) according to previous publication.

[4] = target: T1, soybean lipoxygenase (SLOX-1) (Glycine max, UniProt P08170); experiment: Inhibition of soybean lipoxygenase in vitro; type: biochemical; conditions: pH 9, sodium linoleate substrate; for inhibition at 100 µM: read-out: LOX% Inhibition, 100 μM (±SD); for IC50: read-out: LOX IC50 (μM) (±SD)
T1 construct: 200 μL of plant-derived lipoxygenase solution (1:9 × 10^−4 w/v, in saline); purchased Sigma Chemical, Co; host or cells: soybean (plant-derived)
T1 sequence (P08170 1-839): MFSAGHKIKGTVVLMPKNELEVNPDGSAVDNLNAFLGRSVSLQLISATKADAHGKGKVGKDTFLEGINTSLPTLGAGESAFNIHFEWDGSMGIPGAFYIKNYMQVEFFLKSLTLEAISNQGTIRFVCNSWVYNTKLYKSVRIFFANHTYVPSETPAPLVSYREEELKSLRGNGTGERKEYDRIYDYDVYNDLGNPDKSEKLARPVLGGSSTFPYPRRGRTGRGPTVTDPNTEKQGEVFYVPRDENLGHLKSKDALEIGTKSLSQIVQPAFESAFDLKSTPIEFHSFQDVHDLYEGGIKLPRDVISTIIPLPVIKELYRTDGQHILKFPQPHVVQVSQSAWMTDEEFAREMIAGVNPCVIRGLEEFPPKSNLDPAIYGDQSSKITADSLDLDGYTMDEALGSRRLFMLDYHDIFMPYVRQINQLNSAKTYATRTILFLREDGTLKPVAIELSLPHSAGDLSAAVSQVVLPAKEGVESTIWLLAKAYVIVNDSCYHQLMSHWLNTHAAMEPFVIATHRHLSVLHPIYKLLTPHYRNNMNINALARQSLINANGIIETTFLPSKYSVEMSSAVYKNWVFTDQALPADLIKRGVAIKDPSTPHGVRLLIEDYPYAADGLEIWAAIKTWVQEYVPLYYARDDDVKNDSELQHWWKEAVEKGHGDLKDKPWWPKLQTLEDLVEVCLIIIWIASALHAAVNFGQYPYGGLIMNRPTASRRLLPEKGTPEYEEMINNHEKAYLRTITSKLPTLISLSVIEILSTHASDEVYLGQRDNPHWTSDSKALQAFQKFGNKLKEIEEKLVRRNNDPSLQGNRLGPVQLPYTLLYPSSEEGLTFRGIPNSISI
Method: Soybean lipoxygenase SLOX-1 at pH 9 is used in vitro. During this assay linoleic acid sodium salt is converted to the corresponding 13-hydroperoxide. The reaction is recorded photometrically at 234 nm using the UV-based enzyme assay. […] It is known that soybean LOX inhibitory activity induced by NSAIDs is qualitatively quite similar to the inhibition observed on the rat mast cells LOX and this assay may be used as a qualitative or semi-quantitative screen for such activity.
To a quartz cell, add 790 μL of Tris-HCl pH = 9.0 buffer, 200 μL of plant-derived lipoxygenase solution (1:9 × 10^−4 w/v, in saline), 10 μL of the test compound solution and 100 μL of sodium linoleate solution (3 mM concentration). The absorbance was measured at 234 nm, where the change in absorbance due to the conversion of linoleic acid to […] was recorded. A solution of 790 μL of Tris-HCl pH = 9.0 buffer, 200 μL of a plant-derived lipoxygenase solution (1:9 × 10^−4 w/v, in saline), 10 μL of DMSO and 100 μL of sodium linoleate solution (3 mM concentration) was used as a control.

Structure (SMILES)	RM ± SD [1]	RA%, 100 μM, 20 min (±SD) [2] [%]	AAPH% Inhibition, 100 μM (±SD) [3] [%]	inhibition at 100 µM [4] [%]	RA%, 100 μM, 60 min (±SD) [2] [%]	IC50 [4] [µM]
N#Cc1ccc(N2N=C(/C=C/c3ccc(Br)cc3)CC2c2ccc(Br)cc2)cc1 (stereo not drawn) [Compound 4c, (E)-4-(5-(4-bromophenyl)-3-(4-bromostyryl)-4,5-dihydro-1H-pyrazol-1-yl)-benzonitrile]	0.94 ± 0.069	2 ± 0.1	59 ± 0.2	17 ± 1.2	–	–
N#Cc1ccc(N2N=C(/C=C/c3ccc(Cl)cc3)CC2c2ccc(Cl)cc2)cc1 (stereo not drawn) [Compound 4d, (E)-4-(5-(4-chlorophenyl)-3-(4-chlorostyryl)-4,5-dihydro-1H-pyrazol-1-yl)-benzonitrile]	0.85 ± 0.068	23 ± 0.3	51 ± 0.2	–	2 ± 0.1	85
CN(C)c1ccc(/C=C/C2=NN(c3ccc(C#N)cc3)C(c3ccc(N(C)C)cc3)C2)cc1 (stereo not drawn) [Compound 4e, (E)-4-(5-(4-(dimethylamino)phenyl)-3-(4-(dimethylamino)styryl)-4,5-dihydro-1H-pyrazo-1yl)-benzonitrile]	0.49 ± 0.029	2 ± 0.1	74 ± 0.9	6 ± 0.5	2 ± 0.2	–
NC(=O)N1N=C(/C=C/c2ccc(F)cc2)CC1c1ccc(F)cc1 (stereo not drawn) [Compound 5b, (E)-5-(4-fluorophenyl)-3-(4-fluorostyryl)-4,5-dihydro-1H-pyrazole-1-carboxamide]	0.06 ± 0.004	19 ± 0.1	8 ± 0.2	39 ± 0.7	–	–
NC(=O)N1N=C(/C=C/c2ccc(Cl)cc2)CC1c1ccc(Cl)cc1 (stereo not drawn) [Compound 5d, (E)-5-(4-chlorophenyl)-3-(4-chlorostyryl)-4,5-dihydro-1H-pyrazole-1-carboxamide]	0.50 ± 0.043	–	33 ± 0.5	–	34 ± 0.5	80
CN(C)c1ccc(/C=C/C2=NN(C(N)=O)C(c3ccc(N(C)C)cc3)C2)cc1 (stereo not drawn) [Compound 5e, (E)-5-(4-dimethylaminophenyl)-3-(4-dimethylaminostyryl)-4,5-dihydro-1H-pyrazole-1-carboxamide]	0.28 ± 0.019	20 ± 0.1	61 ± 0.9	19 ± 0.4	–	–
CC(=O)N1N=C(/C=C/c2ccccc2)CC1c1ccccc1 (stereo not drawn) [Compound 6a, (E)-5-phenyl-3-styryl-4,5-dihydro-1-H-pyrazol-1-ethan-1-one]	0.17 ± 0.014	11 ± 0.6	22 ± 1	24 ± 0.8	–	–
CC(=O)N1N=C(/C=C/c2ccc(Cl)cc2)CC1c1ccc(Cl)cc1 (stereo not drawn) [Compound 6d, (E)-5-(4-chlorophenyl)-3-(4-chlorostyryl)-4,5-dihydro-1-H-pyrazol-1-ethan-1-one]	0.65 ± 0.048	–	67 ± 0.4	42 ± 2.7	8 ± 0.7	–
CC(=O)N1N=C(/C=C/c2ccc(N(C)C)cc2)CC1c1ccc(N(C)C)cc1 (stereo not drawn) [Compound 6e, (E)-5-(4-dimethylaminophenyl)-3-(4-dimethylaminostyryl)-4,5-dihydro-1-H-pyrazol-1-ethan-1-one]	0.47 ± 0.036	7 ± 0.5	56 ± 0.3	–	12 ± 1	40
